From patent publication US8987320B2, “Solid salt forms of a pyrrole substituted 2-indolinone” (Zoetis LLC, priority 2005, dated 2015)
“And” between values parts separate entries of the source, which are not always exact repeats. Equal entries are not always repeated. “Also recorded” adds a separate entry of the source. Where two headings read alike, the source gives them in different places.

Experiments:
[1] = Dynamic moisture sorption gravimetry (DMSG) of salts of Compound I; format: physicochemical
Experimental: Dynamic Moisture Sorption Gravimetry (DMSG).
DMSG isotherm was collected on a temperature controlled atmospheric microbalance. Approximately 10 mg samples were placed in the sample pan of the balance. The humidity was sequentially varied from room relative humidity (RH) to 0% RH and was then increased to 90% RH followed by a decrease of RH to 0% again in 3% RH steps. The mass was then measured every two minutes. The RH was stepped to the next target value when change of the sample mass was less than 0.5 μg in 10 min. The Visual Basic program dmsgscn2.exe was used to control the data collection and export the information to an Excel spreadsheet.

Wettability with water = format: physicochemical
[2] = Compound I phosphate plasma levels in dogs with mast cell tumors (LC/MS/MS); format: in vivo, canine; details: for concentration at 8 h / Cmax at 8 h: dog, plasma, oral; for Cmax at 8 h: dogs
Experimental: (§1) Study Design. This study was a proof of target modulation study in dogs with recurrent or metastatic grade MCTs. Patients received a single oral dose of Compound I phosphate at 3.25 mg/kg. Using a 6-mm punch biopsy instrument, samples were obtained from the tumor before Compound I phosphate administration and 8 hours (h) after treatment. When possible, multiple biopsies were taken. Each sample was flash frozen in liquid nitrogen and stored at −70° centigrade (C) before analysis. Blood samples for analysis of plasma levels of Compound I phosphate were obtained at the same time as tumor biopsies (see below).
Compound I Phosphate Plasma Levels. Blood samples were drawn from the jugular vein and placed into a red-top serum collection vacuum glass tube. Specimens were kept at room temperature, allowed to clot, centrifuged at 1500 rpm at 4° C. for 10 minutes, transferred to cryovials, and plasma frozen at −70° C. pending analysis. Briefly, plasma samples (20 μl) or Compound I phosphate standards in canine plasma were mixed with methanol (200 μl) containing DL-propranolol hydrochloride (internal standard) in a 96-well polypropylene plate (Orochem Technology, Westmont, Ill.). The plate was mixed by vortex for 1 min, and the samples were centrifuged for 10 min at 4000 rpm. Ten microliters of the supernatant were injected onto the LC/MS/MS system, in which separation occurred on a BataBasic C-18 (5 μm, 100×4.6 mm) reverse-phase high-performance liquid chromatography column (Keystone Scientific, Foster City, Calif.). The amount of Compound I phosphate and the internal standard in each canine plasma sample were quantified based on standard curves generated using known amounts of compound ranging from 0.2 to 500 ng/ml.

KIT = KIT phosphorylation in canine mast cell tumor biopsies before and after a single dose (immunoprecipitation/Western blot); format: in vivo
Experimental: as §1
Analysis of KIT and ERK Phosphorylation. Tumor biopsies were frozen in liquid nitrogen and later pulverized using a liquid nitrogen-cooled cryomortar and pestle, then stored at −70° C. until used. For the analysis of KIT, pulverized tumors were homogenized, lysed, and immunoprecipitated from 1 mg of starting tumor lysate, as described previously (Abrams, T. J., Lee, L. B., Murray, L. J., Pryer, N. K., Cherrington, J. M. SU11248 inhibits KIT and platelet-derived growth factor receptor beta in preclinical models of human small cell lung cancer. Mol. Cancer Ther. 2: 471-478, 2003; which is incorporated by reference in its entirety) using an agarose-conjugated antibody to KIT (SC-1493AC; Santa Cruz Biotechnology, Santa Cruz, Calif.). […] The amount of phosphorylated KIT in each sample was determined by Western blot using an antibody to phosphotyrosine 719 of murine KIT (3391; Cell Signaling Technology, Beverly, Mass.), which corresponds to tyrosine 721 of canine KIT and is an autophosphorylation site and, thus, a surrogate for KIT kinase activity. […] Target modulation was scored by eye by three observers blinded to the JM status and plasma concentration. Reduction of ≧50% in phospho-protein signal relative to total protein signal in the biopsy sample taken post-treatment compared with the pretreatment biopsy was scored as positive for target modulation, whereas a reduction of <50% was scored negative.

ERK1/2 = ERK1/2 phosphorylation in canine mast cell tumor biopsies before and after a single dose (Western blot); format: in vivo; details: single oral dose 3.25 mg/kg
Experimental: as §1
Analysis of KIT and ERK Phosphorylation. […] The amount of phosphorylated KIT in each sample was determined by Western blot using an antibody to phosphotyrosine 719 of murine KIT (3391; Cell Signaling Technology, Beverly, Mass.), which corresponds to tyrosine 721 of canine KIT and is an autophosphorylation site and, thus, a surrogate for KIT kinase activity. […] Target modulation was scored by eye by three observers blinded to the JM status and plasma concentration. Reduction of ≧50% in phospho-protein signal relative to total protein signal in the biopsy sample taken post-treatment compared with the pretreatment biopsy was scored as positive for target modulation, whereas a reduction of <50% was scored negative.

[3] = tested on: recurrent mast cell tumors; assay: Multicenter, placebo-controlled, double blind, randomized study in dogs with recurrent mast cell tumors; format: in vivo
Experimental: Purpose. The effectiveness of Compound I phosphate oral tablets for the treatment of mast cell tumors in client-owned animals that had recurrent measurable disease after surgery was evaluated in a masked, negative controlled study. The study evaluated every-other-day dosing of Compound I phosphate at 3.25 mg free base equivalents (FBE)/kg body weight on disease response using modified (RECIST) criteria of response. The presence or absence of c-kit mutation in mast cell tumors was evaluated as a covariate in this study. For decision-making purposes, the duration of the study was 6 weeks.
One-hundred-fifty-three (153) dogs were randomized in a ratio of 4:3 into one of two treatment groups: T01 (Placebo in which n=65) and T02 (Compound I phosphate in which n=88). Ten veterinary oncology practices in the United States were selected and enrolled cases. For enrollment, dogs had to have recurrent mast cell tumor (at least one target lesion had to have a minimum longest diameter of 20 mm)±regional lymph node involvement. A maximum of three target lesions (measurable mast cell tumors) and all non-target lesions (all remaining lesions, measurable or un-measurable) were identified at baseline by two evaluators. Efficacy was based on the objective response (complete response or partial response) at the week 6 visit where the mean of the two evaluators sum of the longest diameter of target lesions (Mean Sum LD) was compared to the Baseline Mean Sum LD for calculation of percent reduction or increase. Assessment of non-target lesions was subjective. A complete response (CR) was defined as the disappearance of all target and non-target lesions and the appearance of no new lesions; a partial response (PR) was defined as at least a 30% decrease in the Mean Sum LD of target lesions compared to the Baseline Mean Sum LD and non-progression of non-target lesions and appearance of no new lesions. Tissue samples from the tumor and distant normal skin were collected prior to randomization and submitted for the assessment of c-kit mutation status.

- % water at 80% RH ([1]; 80% RH): ~1%
- water at 80 percent humidity ([1]; 80 percent relative humidity): about 1%
- wettability with water compared with Compound I free base (Wettability with water): much better
- concentration at 8 h ([2]; 3.25 mg/kg, single dose at 3.25 mg/kg, 8 h, read-out: average plasma concentration for dogs that did not score for KIT target modulation): 137 ± 36 ng/mL
- concentration at 8 h ([2]; 3.25 mg/kg, single dose at 3.25 mg/kg, 8 h, read-out: average plasma concentration for dogs with evidence of KIT target modulation): 79.2 ± 41 ng/mL
- Cmax at 8 h ([2]; 3.25 mg/kg, single dose at 3.25 mg/kg, read-out: plasma concentration at 8 h (approximately Cmax), average): 105 ± 9 ng/mL
- Cmax at 8 h ([2]; 3.25 mg/kg, single dose at 3.25 mg/kg, read-out: plasma concentration at 8 h (approximately Cmax), range over dogs): 33.2 to 186 ng/mL
- dogs with plasma levels considered to be in the therapeutic range ([2]; single dose at 3.25 mg/kg, 8 h): Twelve
SMILES: Cc1[nH]c(/C=C2\C(=O)Nc3ccc(F)cc32)c(C)c1C(=O)NCCN1CCCC1 [Compound I phosphate]
- Plasma Compound I phosphate postdose ([2]; individual dogs, single oral dose 3.25 mg/kg, 8 h after dosing, 3.25 mg/kg): 0.3 ng/mL and 83.5 ng/mL and 98.0 ng/mL and 116.0 ng/mL and 121.0 ng/mL and 186.0 ng/mL and 103.0 ng/mL and 111.0 ng/mL and 158.0 ng/mL and 65.3 ng/mL and 95.4 ng/mL and 119.0 ng/mL and 81.0 ng/mL and 33.2 ng/mL
- evaluable MCT biopsy pairs with detectable inhibition of KIT activation (KIT; Eight of 11, single oral dose): 73%
- P-KIT reduction postdose (Phospho-Tyr721 KIT) (KIT; individual dogs, single oral dose 3.25 mg/kg, biopsy 8 h after treatment vs pretreatment): Yes (Reduction of ≧50% in phospho-protein signal relative to total protein signal in the biopsy sample taken post-treatment compared with the pretreatment biopsy was scored as positive for target modulation); also recorded: No (a reduction of <50% was scored negative)
- evaluable dogs scored positive for KIT target modulation (≧50% reduction in phosphorylated KIT relative to total KIT) (KIT; single oral dose 3.25 mg/kg): Eight
- P-ERK½ reduction postdose (Phospho-Thr202/Tyr204 ERK½) (ERK1/2; individual dogs, biopsy 8 h after treatment vs pretreatment): Yes (Reduction of ≧50% in phospho-protein signal relative to total protein signal in the biopsy sample taken post-treatment compared with the pretreatment biopsy was scored as positive for target modulation); also recorded: No (a reduction of <50% was scored negative)
- evaluable tumors showing a reduction in the ratio of phospho-ERK1/2 to total ERK1/2 (ERK1/2): 7 of 11 evaluable
- animals that experienced progressive disease ([3]; 3.25 mg FBE/kg every other day, 6 weeks, 29/86): 33.7%
- objective response rate (complete or partial response) ([3]; 3.25 mg FBE/kg every other day, oral tablets, week 6, 33/86): 38.3%
- objective response, dogs positive for the c-kit mutation ([3]; T02 group, 12/20): 60%
- objective response, dogs negative for the c-kit mutation ([3]; T02 group, 21/64): 32.8%
